In US12276670B2, “Methods for identifying and treating adrenomyeloneuropathy (AMN)” (The General Hospital Corporation, priority 2017, dated 2025):
“Also recorded” adds a separate entry of the source.

B1: MFGE8: milk fat globule EGF factor 8 protein, supplemented to microglia at 50 ng/ml (protein, UniProt Q08431 24-387, looked up)
Lactadherin: LDICSKNPCHNGGLCEEISQEVRGDVFPSYTCTCLKGYAGNHCETKCVEPLGLENGNIANSQIAASSVRVTFLGLQHWVPELARLNRAGMVNAWTPSSNDDNPWIQVNLLRRMWVTGVVTQGASRLASHEYLKAFKVAYSLNGHEFDFIHDVNKKHKEFVGNWNKNAVHVNLFETPVEAQYVRLYPTSCHTACTLRFELLGCELNGCANPLGLKNNSIPDKQITASSSYKTWGLHLFSWNPSYARLDKQGNFNAWVAGSYGNDQWLQVDLGSSKEVTGIITQGARNFGSVQFVASYKVAYSNDSANWTEYQDPRTGSSKIFPGNWDNHSHKKNLFETPILARYVRILPVAWHNRIALRLELLGC

How the values were obtained:
[1] = test system: neurons differentiated from ReN cells; experiment: PS exposure by Annexin V-FITC binding; type: cell-based, human; details: treatment for 3 days at 10 μM or 20 μM
Procedure: The most significant biochemical change caused by ABCD1 mutations is increased VLCFA levels including free fatty acid and LPC (in particular C24:0 and C26:0) in plasma and tissues. In order to determine whether neurons exposed to high VLCFA levels have PS exposure on their surfaces, neurons differentiated from ReN cells were treated with both C26:0 free fatty acid (FFA C26:0) and LPC C26:0 and then determined the PS exposure by Annexin V-FITC binding. Immortalized hNPC cell line ReNcell VM (ReN) was used to differentiate into neurons according to a published protocol (Kim et al., 2015). Simply, ReN cells were grown in proliferation medium (DMEM/F12 (Gibco/Life Technologies) with 2 μg/ml heparin (stock, STEMCELL Technologies), 2% B27 (Life Technologies), 20 ng/ml EGF, 20 ng/ml bFGF and 1% of 100× penicillin/streptomycin (Gibco/Life Technologies) until confluency. For differentiation, 3×10^4 cells were seeded on matrigel-coated (1:100 dilution in DMEM/F12) 8 well chamber slides and grown in differentiation medium (DMEM/F12 (Gibco/Life Technologies) with 2 μg/ml heparin (stock, STEMCELL Technologies), 2% B27 (Life Technologies) and 1% of 100× penicillin/streptomycin (Gibco/Life Technologies) for 2-3 weeks prior to co-culture with microglia.

[2] = test system: neurons differentiated from ReN cells; experiment: Cleaved-caspase and Tuj 1 staining after VLCFA treatment; type: cell-based, human; details: for cleaved-caspase staining (late apoptosis): differentiated ReN neurons after FFA C26:0 or LPC C26:0 treatment
[3] = test system: MFGE8; experiment: MFGE8 gene expression in N9 microglia; type: cell-based; details: 30 uM, 3 days
Procedure: (§1) In order to learn whether microglial changes seen in vivo were primary or secondary to axon degeneration, microglia was isolated from postnatal mice and molecular changes in unstimulated conditions was assessed as well as after LPS challenge. Microglia cultures were prepared as previously described (Tamashiro et al., 2012). Briefly, mixed glial cultures (˜95% astrocytes, ˜5% microglia) were prepared from the brain tissue of 1-3 day old mice. The tissue was trypsinized with 0.05% trypsin, and the cells were resuspended in glia complete medium DMEM (Lonza) supplemented with 10% fetal bovine serum (FBS), 100 IU/ml penicillin, 100 μg/ml streptomycin and 2 mM L-Glutamine. After 10-14 days in culture, microglia were isolated from the mixed glial cultures by the shake-off procedure. Specifically, loosely attached microglia were obtained from an incubator shaker at 250 rpm for 2 h at 37° C., the cell-containing medium was centrifuged at 1100 rpm for 3 minutes to collect microglia for subsequent culture. N9 microglia cells were cultured in RPMI 1640 medium supplemented with 10% FBS.
After observing an unexpected increase of phagocytosis-related biomarkers at the tissue level, whether gene expression of these markers would be altered in vitro was examined. Total RNA from cells or tissues were isolated using Qiagen RNeasy Mini Kit (Qiagen). First-strand cDNA synthesis used 100 ng random primer (Life Technologies), […], 10 mM dNTP, and 200 units of reverse transcriptase (Life Technologies) per 20 μL reactions. PCRs were performed in duplicates in a 25 μl final volume by using SYBR Green master mix from Applied Biosystems (Life Technologies). The data was analyzed by calculating the delta Ct value between the tested gene and an internal control.
In order to examine whether VLCFA has any effect on MFGE8 expression, microglial cell lines (N9) were treated with 30 uM FFA C26:0, LPC C16:0 and LPC C26:0 separately for 3 days.

[4] = test system: MFGE8; experiment: MFGE8 protein secretion in primary isolated microglia (ELISA); type: cell-based, mouse; details: primary microglia from WT and Abcd1−/− mice, 15 uM
Procedure: as §1
An ELISA assay detected 2-fold higher MFGE8 protein secretion into media by Abcd1−/− microglia (FIG. 4D, P<0.05; MFGE8 and TNFa level in culture medium and spinal cord homogenate were measured using MFGE8 and TNFa ELISA kit (R&D) according to manufacturer's instructions). […]

[5] = test system: MFGE8; experiment: MFGE8 gene expression in primary isolated microglia; type: cell-based, mouse; details: primary microglia from WT and Abcd1−/− mice, 15 uM
Procedure: as §1
After observing an unexpected increase of phagocytosis-related biomarkers at the tissue level, whether gene expression of these markers would be altered in vitro was examined. […] The data was analyzed by calculating the delta Ct value between the tested gene and an internal control. […]

[6] = test system: differentiated ReN cells in the co-culture system with primary Abcd1−/− microglia; experiment: Co-culture of differentiated neurons with primary Abcd1−/− microglia; type: cell-based
Procedure: As a bridging protein, MFGE8 tightly binds to exposed phosphatidylserine on surface membranes of stressed neurons and opsonizes them for phagocytosis. Indeed, in co-culture, Abcd1−/− microglia increased phagocytosis of phosphatidylserine-exposing neurons in both unstimulated and LPS-challenged conditions (FIG. 4E). For the co-culture of microglia and neurons, isolated microglia were seeded on top of differentiated neurons and co-cultured for 4 days with or without supplementation of VLCFA. For VLCFA supplementation, hexacosanoic acid (FFA C26:0) and Lysophosphatidylcholine (LPC) C16:0 and C26:0 (Avanti polar lipid) were solubilized in 50 mg/ml Methyl-β-cyclodextrin to make 3 mM stock solution and then supplemented into culture medium to reach designated concentration with Methyl-β-cyclodextrin as vehicle control. […] Tuj-1 immunofluoresece and degenerated axons were quantified in each group.
The most significant biochemical change caused by ABCD1 mutations is increased VLCFA levels including free fatty acid and LPC (in particular C24:0 and C26:0) in plasma and tissues. In order to determine whether neurons exposed to high VLCFA levels have PS exposure on their surfaces, neurons differentiated from ReN cells were treated with both C26:0 free fatty acid (FFA C26:0) and LPC C26:0 and then determined the PS exposure by Annexin V-FITC binding. […]

[7] = test system: primary microglia from Abcd1−/− mice; experiment: Microglial phagocytosis assay (PS exposing SH-SY5Y neurons seeded on microglia); type: cell-based, mouse; details: primary Abcd1−/− microglia pretreated 12 hours; MFGE8 at 50 ng/ml; 4 hours co-culture
Procedure: To validate the impact of MFGE8, primary microglia from Abcd1−/− mice were pretreated with either MFGE8 (50 ng/ml) or MFGE8 antibody for 12 hours and then phagocytosis was assessed by performing a microglial phagocytosis assay. Microglia were seeded in 8-well chamber (7×10^4/well in complete medium) and cultured for 24 hours. SH-SY5Y cells were treated with 100 uM H2O2 for 12 hours to induce phosphatidylserine (PS) exposure on cell surface. Floating SH-Sy5Y cells were then collected by centrifuge at 1000 g for 3 minutes, resuspended in serum free medium and stained with 3 μM CMTPX (red)(Life Science Technologies)(1:1000 dilution) for 30 minutes. A portion of the floating cells was subjected to Annexin V-FITC staining to confirm the exposure of phosphatidylserine. The remnant was washed twice and seeded (same amount as microglia) on top of the microglial layer. After 4 hours co-culture, cells were washed with PBS and fixed with 4% paraformaldehyde (PFA) for 15 min at room temperature. Microglia were then stained with IBA1 antibody (Wako) overnight followed by Alexa Fluor-488 conjugated second antibody. For quantification, 5 random images were taken from each chamber well using a confocal microscope (Zeiss). The total number of phagocytosed particles as well as cell-sized particles was counted and divided by microglia cell number.

Row | Molecule | PS exposure on cell surface (Annexin V-FITC) [1] | cleaved-caspase staining (late apoptosis) [2] | MFGE8 mRNA expression [3] | MFGE8 expression at protein level (secretion) [4] | neuronal marker Tuj 1 morphology ([2]; differentiated ReN neurons after LPC C26:0 treatment) | MFGE8 expression at mRNA level [5] | decrease of Tuj 1 expression ([6]; 15 uM LPC C26:0, co-culture 4 days) [%] | axon degeneration (quantification of degenerated axons) ([6]; co-culture system with LPC C26:0 supplementation, with or without MFGE8 antibody) | microglial phagocytosis of PS exposing neurons [7]
1 | CCCCCCCCCCCCCCCCCCCCCCCCCC(=O)O [FFA C26:0, hexacosanoic acid] | did not induce significant PS exposure | did not reveal a notable positive signal | did not have an effect |  |  |  |  |  | 
2 | CCCCCCCCCCCCCCCC(=O)OC[C@@H](O)COP(=O)([O-])OCC[N+](C)(C)C [LPC C16:0, Lysophosphatidylcholine (LPC) C16:0] |  |  | did not have an effect |  |  |  |  |  | 
3 | CCCCCCCCCCCCCCCCCCCCCCCCCC(=O)OC[C@@H](O)COP(=O)([O-])OCC[N+](C)(C)C [LPC C26:0, Lysophosphatidylcholine (LPC) C26:0] | remarkable dose dependent PS exposure; also recorded: showed exposure of phosphatidylserine (PS) | did not reveal a notable positive signal; also recorded: little late apoptosis | significantly increased | significant increases | did not show significant morphological changes | significant increases | 20 | increased axon degeneration | 
4 | B1 |  |  |  |  |  |  |  |  | significant increase; also recorded: dramatically increased
